Test results as given in patent publication US20090263830A1, “VISUALIZATION AND QUANTITIATION OF CELLULAR CYTOTOXICITY USING CELL-PERMEABLE FLUOROGENIC PROTEASE SUBSTRATES AND CASPASE ACTIVITY INDICATOR MARKERS” (Oncoimmunin, Inc., priority 2002, published 2009).

B1: PE-labeled Annexin V: phycoerythrin labeled annexin V, cell surface marker of apoptosis (protein, UniProt P08758 2-320, looked up)
Annexin A5: AQVLRGTVTDFPGFDERADAETLRKAMKGLGTDEESILTLLTSRSNAQRQEISAAFKTLFGRDLLDDLKSELTGKFEKLIVALMKPSRLYDAYELKHALKGAGTNEKVLTEIIASRTPEELRAIKQVYEEEYGSSLEDDVVGDTSGYYQRMLVVLLQANRDPDAGIDEAQVEQDAQALFQAGELKWGTDEEKFITIFGTRSVSHLRKVFDKYMTISGFQIEETIDRETSGNLEQLLLAVVKSIRSIPAYLAETLYYAMKGAGTDDHTLIRVMVSRSEIDLFNIRKEFRKNFATSLYSMIKGDTSGDYKKALLLLCGEDD
modifications: phycoerythrin label
notes: phycoerythrin labeled annexin V, cell surface marker of apoptosis

Experiments:
EL4 cells = test: Flow-cytometry fluorescence cellular cytotoxicity (FCC) assay, CTL killing of peptide-pulsed target cells; format: cell-based, mouse
Jurkat cells = test: Cellular cytotoxicity assay using various apoptosis/caspase activity markers and protease indicators; format: cell-based, human; details: indicator used for read-out, E:T 5 to 1

Row | Molecule | % of the target cells (CTO+) positive for DEVDase activity (EL4 cells) | % Killing (Jurkat cells; co-incubation 1 hr) [%] | % Killing (Jurkat cells; co-incubation 1 hr, listed as bis-(Z-DEVDamide)-Rhodamine 110) | % Killing (Jurkat cells; co-incubation 2 hr) [%] | % Killing (Jurkat cells; co-incubation 1 hr, listed as phycoerythine (PE) labeled annexin V) [%]
1 | MT246-256: irrelevant control polyoma virus peptide middle T protein epitope (SNPTYSVM, SEQ ID NO:22) (Synthetic peptide substrate.) | around 10% | – | – | – | –
2 | Bis-(N-CBZ-aspartyl-glutamyl-valyl-aspartylamide) Rhodamine 110 [Bis-(N-CBZ-DEVD amide)R22120] | – | 48.0 | markedly lower than the other two protease indicators | 75.4 | –
3 | B1 | – | 65.6 | – | – | 65.5
